According to patent US20240376056A1, “PHENYL ACETAMIDE BASED IL-17A MODULATORS AND USES THEREOF” (DiCE Alpha, Inc., priority 2021, published 2024):
pIC50: −log10 of the molar value.

Target: T1, IL-17A/A (Homo sapiens, UniProt Q16552)
T1 construct: purchased Genscript Z03228
T1 sequence (Q16552 24-155): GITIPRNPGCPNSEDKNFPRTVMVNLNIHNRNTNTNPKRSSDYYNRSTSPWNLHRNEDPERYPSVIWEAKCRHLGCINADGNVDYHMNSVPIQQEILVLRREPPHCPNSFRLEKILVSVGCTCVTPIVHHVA
Test: HEK-Blue IL-17A/A inhibition assay (SEAP reporter)
Format: cell-based
Details: HEK-Blue cells (HEK 293 expressing IL-17RA, IL-17RC, Act1); IL-17A/A stimulation; 20 hours; SEAP read at A630; 4-parameter fit
Protocol: The HEK-Blue #NC108637 […]. Cells were grown and prepared for assays according to the manufacturer's instructions. This cell line consists of HEK 293 cells that were designed to expressed IL-17R^A, IL-17RC, and the ActI adapter molecule, the combination of which. when stimulated by IL-17A/A activates a NFtcB promoter and drives expression of a recombinant Secreted Alkaline Phosphatase (SEAP) geneprotein. Media from the cells is then added to a development reagent (Quanti-Blue Substrate, Fisher #NC971 1613), and read at A630.
Compounds were titrated in DMSO. with a top final compound concentration of 10 uM, 1 uM, or 0.3 uM, and added to the cells immediately before adding IL-17A/A (Genscript #Z03228). The cells, compound, and IL-17A/A were then incubated for 20 hours before media was removed for SEAP analysis. The resulting inhibition curve was then analyzed using Graphpad Prism 7.0, and IC50 values were determined using a 4-parameter nonlinear fit. DMSO was added to a universal final concentration of 0.1% to optimze background.

| pIC50 | Compound |
| --- | --- |
| 6.00 to 7.00 | CC(C(=O)NCC(F)(F)F)c1cc(F)c(NC(=O)[C@@H](NC(=O)c2ccnn2C(C)C)C(C2CC2)C2CC2)cc1C1CC1 (single isomer, unassigned) [Compound 126] |
| > 7.00 | CC(C(=O)NCC(F)(F)F)c1cc(F)c(NC(=O)[C@@H](NC(=O)c2ccnn2C(C)C)C(C2CC2)C2CC2)cc1C1CC1 (single isomer, unassigned) [Compound 127] |
| 6.00 to 7.00 | CC(C)C(C(=O)NCC(F)(F)F)c1ccc(NC(=O)[C@@H](NC(=O)c2ccnn2C(C)C)C(C2CC2)C2CC2)c(F)c1 (single isomer, unassigned) [Compound 128] |
| < 6.00 | CC(C)C(C(=O)NCC(F)(F)F)c1ccc(NC(=O)[C@@H](NC(=O)c2ccnn2C(C)C)C(C2CC2)C2CC2)c(F)c1 (single isomer, unassigned) [Compound 129] |
| < 6.00 | CC(C)n1nccc1C(=O)N[C@H](C(=O)Nc1ccc(C(CN2CCOCC2)C(=O)NCC(F)(F)F)cc1F)C(C1CC1)C1CC1 (single isomer, unassigned) [Compound 130] |
| 6.00 to 7.00 | CC(C)n1nccc1C(=O)N[C@H](C(=O)Nc1ccc(C(CN2CCOCC2)C(=O)NCC(F)(F)F)cc1F)C(C1CC1)C1CC1 (single isomer, unassigned) [Compound 131] |
| < 6.00 | CC(C)n1nccc1C(=O)N[C@H](C(=O)Nc1ccc([C@H](C)C(=O)NC2CNCC2(F)F)cc1F)C(C1CC1)C1CC1 (single isomer, unassigned) [Compound 133] |
| 6.00 to 7.00 | CC(C)n1nccc1C(=O)N[C@H](C(=O)Nc1ccc([C@H](C)C(=O)NC2CNCC2(F)F)cc1F)C(C1CC1)C1CC1 (single isomer, unassigned) [Compound 134] |
| > 7.00 | CC(C(=O)N(CC(N)=O)CC(F)(F)F)c1ccc(NC(=O)[C@@H](NC(=O)c2ccnn2C(C)C)C(C2CC2)C2CC2)c(F)c1 (single isomer, unassigned) [Compound 137] |
| < 6.00 | CC(C(=O)N(CC(N)=O)CC(F)(F)F)c1ccc(NC(=O)[C@@H](NC(=O)c2ccnn2C(C)C)C(C2CC2)C2CC2)c(F)c1 (single isomer, unassigned) [Compound 138] |
| < 6.00 | CC(C)n1nccc1C(=O)N[C@H](C(=O)Nc1ccc(C(C(=O)NCC(F)(F)F)N2CCOCC2)cc1F)C(C1CC1)C1CC1 (single isomer, unassigned) [Compound 140] |
| < 6.00 | CC(C)n1nccc1C(=O)N[C@H](C(=O)Nc1ccc(C(C(=O)NCC(F)(F)F)N2CCOCC2)cc1F)C(C1CC1)C1CC1 (single isomer, unassigned) [Compound 141] |
| > 7.00 | CC(C)n1nccc1C(=O)N[C@H](C(=O)Nc1ccc([C@H](C)C(=O)N2CC(O)CC2C(F)(F)F)cc1F)C(C1CC1)C1CC1 (single isomer, unassigned) [Compound 142] |
| 6.00 to 7.00 | CC(C)n1nccc1C(=O)N[C@H](C(=O)Nc1ccc([C@H](C)C(=O)N2CC(O)CC2C(F)(F)F)cc1F)C(C1CC1)C1CC1 (single isomer, unassigned) [Compound 143] |
| < 6.00 | CC(C)n1nccc1C(=O)N[C@H](C(=O)Nc1ccc([C@H](C)C(=O)N2CC(O)CC2C(F)(F)F)cc1F)C(C1CC1)C1CC1 (single isomer, unassigned) [Compound 144] |
| < 6.00 | CC(C)n1nccc1C(=O)N[C@H](C(=O)Nc1ccc([C@H](C)C(=O)N2CC(O)CC2C(F)(F)F)cc1F)C(C1CC1)C1CC1 (single isomer, unassigned) [Compound 145] |
| < 6.00 | CC(C)n1nccc1C(=O)N[C@H](C(=O)Nc1ccc([C@H](C)C(=O)N2C(C(N)=O)CCC2C(F)(F)F)cc1F)C(C1CC1)C1CC1 (single isomer, unassigned) [Compound 146] |
| < 6.00 | CC(C)n1nccc1C(=O)N[C@H](C(=O)Nc1ccc([C@H](C)C(=O)N2C(C(N)=O)CCC2C(F)(F)F)cc1F)C(C1CC1)C1CC1 (single isomer, unassigned) [Compound 147] |
| < 6.00 | CC(C)n1nccc1C(=O)N[C@H](C(=O)Nc1ccc([C@H](C)C(=O)N2C(C(N)=O)CCC2C(F)(F)F)cc1F)C(C1CC1)C1CC1 (single isomer, unassigned) [Compound 148] |
| 6.00 to 7.00 | CCC(C(=O)NCC(F)(F)F)c1ccc(NC(=O)[C@@H](NC(=O)c2ccnn2C(C)C)C(C2CC2)C2CC2)c(F)c1 (single isomer, unassigned) [Compound 149] |
| < 6.00 | CCC(C(=O)NCC(F)(F)F)c1ccc(NC(=O)[C@@H](NC(=O)c2ccnn2C(C)C)C(C2CC2)C2CC2)c(F)c1 (single isomer, unassigned) [Compound 150] |
| 6.00 to 7.00 | CC(C)n1nccc1C(=O)N[C@H](C(=O)Nc1ccc([C@H](C)C(=O)NC(C2CCOC2)C(F)(F)F)cc1F)C(C1CC1)C1CC1 (single isomer, unassigned) [Compound 151] |

| pIC50 | Compound |
| --- | --- |
| 6.00 to 7.00 | CC(C)n1nccc1C(=O)N[C@H](C(=O)Nc1ccc([C@H](C)C(=O)NC(C2CCOC2)C(F)(F)F)cc1F)C(C1CC1)C1CC1 (single isomer, unassigned) [Compound 152] |
| > 7.00 | CCOC(=O)Nc1cc(NC(=O)[C@@H](NC(=O)c2ccnn2C(C)C)C(C2CC2)C2CC2)c(F)cc1C(C)C(=O)NCC(F)(F)F (single isomer, unassigned) [Compound 158] |
| > 7.00 | CC(=O)Nc1cc(NC(=O)[C@@H](NC(=O)c2ccnn2C(C)C)C(C2CC2)C2CC2)c(F)cc1C(C)C(=O)NCC(F)(F)F (single isomer, unassigned) [Compound 159] |
| > 7.00 | COC(=O)Nc1cc(NC(=O)[C@@H](NC(=O)c2ccnn2C(C)C)C(C2CC2)C2CC2)c(F)cc1C(C)C(=O)NCC(F)(F)F (single isomer, unassigned) [Compound 161] |
| > 7.00 | CC(C(=O)N(C)CC(F)(F)F)c1cc(F)c(NC(=O)[C@@H](NC(=O)c2ccnn2C(C)C)C(C2CC2)C2CC2)cc1N(C)C (single isomer, unassigned) [Compound 162] |
| > 7.00 | CC(C(=O)NCC(F)(F)F)c1cc(F)c(NC(=O)[C@@H](NC(=O)c2ccnn2C(C)C)C(C2CC2)C2CC2)cc1N(C)C (single isomer, unassigned) [Compound 163] |
| > 7.00 | CNc1cc(NC(=O)[C@@H](NC(=O)c2ccnn2C(C)C)C(C2CC2)C2CC2)c(F)cc1C(C)C(=O)NCC(F)(F)F (single isomer, unassigned) [Compound 164] |
| 6.00 to 7.00 | CC(=O)NC(C(=O)NCC(F)(F)F)c1ccc(NC(=O)[C@@H](NC(=O)c2ccnn2C(C)C)C(C2CC2)C2CC2)c(F)c1 (single isomer, unassigned) [Compound 167] |
| < 6.00 | CCn1nccc1C(=O)N[C@H](C(=O)Nc1c(F)cc(C(C)C(=O)NCC(F)(F)F)cc1F)C(C1CC1)C1CC1 (single isomer, unassigned) [Compound 170] |
| 6.00 to 7.00 | CCn1nccc1C(=O)N[C@H](C(=O)Nc1c(F)cc(C(C)C(=O)NCC(F)(F)F)cc1F)C(C1CC1)C1CC1 (single isomer, unassigned) [Compound 171] |
| 6.00 to 7.00 | Cc1cc(NC(=O)[C@@H](NC(=O)c2ccnn2C(C)C)C(C2CC2)C2CC2)c(F)cc1C(C)C(=O)N1CC(O)CC1C(F)(F)F (single isomer, unassigned) [Compound 172] |
| > 7.00 | Cc1cc(NC(=O)[C@@H](NC(=O)c2ccnn2C(C)C)C(C2CC2)C2CC2)c(F)cc1C(C)C(=O)N1CC(O)CC1C(F)(F)F (single isomer, unassigned) [Compound 173] |
| > 7.00 | COc1cc(NC(=O)[C@@H](NC(=O)c2ccnn2C(C)C)C(C2CC2)C2CC2)c(F)cc1C(C)C(=O)NC(CO)C(F)(F)F (single isomer, unassigned) [Compound 180] |
| 6.00 to 7.00 | COc1cc(NC(=O)[C@@H](NC(=O)c2ccnn2C(C)C)C(C2CC2)C2CC2)c(F)cc1C(C)C(=O)NC(CO)C(F)(F)F (single isomer, unassigned) [Compound 181] |
| < 6.00 | COc1cc(NC(=O)[C@@H](NC(=O)c2ccnn2C(C)C)C(C2CC2)C2CC2)c(F)cc1C(C)C(=O)N1CC(O)CC1C(F)(F)F (single isomer, unassigned) [Compound 182] |
| < 6.00 | COc1cc(NC(=O)[C@@H](NC(=O)c2ccnn2C(C)C)C(C2CC2)C2CC2)c(F)cc1C(C)C(=O)N1CC(O)CC1C(F)(F)F (single isomer, unassigned) [Compound 183] |
| > 7.00 | CC(C(=O)NCC(F)(F)F)c1cc(F)c(NC(=O)[C@@H](NC(=O)c2ccnn2C(C)C)C(C2CC2)C2CC2)cc1OC(F)(F)F (single isomer, unassigned) [Compound 185] |
| 6.00 to 7.00 | CC(C(=O)NCC(F)(F)F)c1cc(F)c(NC(=O)[C@@H](NC(=O)c2ccnn2C(C)C)C(C2CC2)C2CC2)cc1NC(F)(F)F (single isomer, unassigned) [Compound 186] |
| < 6.00 | CC(C)n1nccc1C(=O)N[C@H](C(=O)Nc1ccc(C(N)C(=O)NCC(F)(F)F)cc1F)C(C1CC1)C1CC1 (single isomer, unassigned) [Compound 189] |
| 6.00 to 7.00 | CC(C)n1nccc1C(=O)N[C@H](C(=O)Nc1ccc(C(N)C(=O)NCC(F)(F)F)cc1F)C(C1CC1)C1CC1 (single isomer, unassigned) [Compound 191] |
| > 7.00 | Cc1cc(NC(=O)[C@@H](NC(=O)c2ccnn2C(C)C)C(C2CC2)C2CC2)c(F)cc1C(C)C(=O)N1CC(O)CC1C(F)(F)F (single isomer, unassigned) [Compound 199] |
